In patent publication US20260266834A1, “Compositions And Methods For Detecting Proteins In Protein Corona” (Board of Trustees of Michigan State University, priority 2023, published 2026):

Biological target: T1, albumin (Homo sapiens, UniProt P02768)
T1 construct: commercial pooled healthy human plasma diluted to 55% by PBS; from tissue; host or cells: commercial pooled healthy human plasma
Assay: Abundance of albumin in protein corona proteome by LC-MS/MS
Details: PtdChos 1000 μg/ml; plasma alone over 81%
Method: For protein corona formation in the presence of small molecules, commercial pooled healthy human plasma diluted to 55% by PBS was first incubated with the individual small molecules or a combination of small molecules at varying concentrations (i.e., 10, 100, and 1,000 μg/ml) for 1 hour at 37° C., allowing the small molecules to interact with the biological matrix. The small molecule combinations included each of the four small molecules (glucose, triacylglycerols, diacylglycerols, and PtdChos for combination 1; PE, PtdIns, IMP, and vitamin B complex for combination 2) at the given concentration. […]
Initial processing: NPs coated with protein corona were first washed with PBS and then resuspended in 30 μl of PBS, enriched with 15 mM phosphate (pH 7.4). The bound total protein content was estimated to be around 1 μg per sample, determined via a Micro BCA™ assay (Thermo Scientific™). […]
LC-MS/MS Analysis: Dried samples were reconstituted with 1 μg of peptides in 25 μl of liquid chromatography (LC) loading buffer (3% acetonitrile (ACN), 0.1% trifluoroacetic acid (TFA)) and analyzed using LC-MS/MS. A 60-minute gradient was applied in the label-free quantification (LFQ) mode, with 5 μl aliquots injected in triplicate. Control samples (55% human plasma) were prepared with 8 μg of peptides in 200 μl of loading buffer and analyzed similarly. […]

T1 sequence (P02768 25-609): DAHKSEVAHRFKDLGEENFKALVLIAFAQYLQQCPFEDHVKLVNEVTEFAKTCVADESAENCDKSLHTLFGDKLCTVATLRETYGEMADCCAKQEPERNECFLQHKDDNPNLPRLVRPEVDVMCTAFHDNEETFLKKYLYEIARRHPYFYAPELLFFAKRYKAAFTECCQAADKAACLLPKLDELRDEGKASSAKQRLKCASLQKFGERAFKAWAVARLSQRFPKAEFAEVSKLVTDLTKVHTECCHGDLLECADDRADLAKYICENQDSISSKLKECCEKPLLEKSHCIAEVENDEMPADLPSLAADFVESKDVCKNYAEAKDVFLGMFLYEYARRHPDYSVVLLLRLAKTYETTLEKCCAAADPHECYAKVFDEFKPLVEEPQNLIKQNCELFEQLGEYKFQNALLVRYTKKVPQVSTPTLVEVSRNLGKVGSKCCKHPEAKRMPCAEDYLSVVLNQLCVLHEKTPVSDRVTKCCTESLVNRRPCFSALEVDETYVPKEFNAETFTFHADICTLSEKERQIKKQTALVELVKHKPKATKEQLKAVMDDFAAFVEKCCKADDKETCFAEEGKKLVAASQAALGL

phosphatidylcholine [PtdChos]
albumin representation (share of proteins): around 17%
